Test results taken from patent US11191878B2, “Kits for local delivery of water soluble agents and methods of use” (priority 2017, dated 2021).

Key:
myofibroblast formation = conditions: animal studies of capsular contracture with breast implants; cited from earlier work
[1] = given preoperatively
fibrinolysis = assay: tranexamic acid concentrations effective against fibrinolysis; conditions: relative to doses used in the non-GLP acute porcine study

time to reach plasma concentrations [1] | Structure (SMILES) | myofibroblast formation (myofibroblast formation) | dose effective in reversing fibrinolysis (fibrinolysis)
 | O=S(=O)([O-])CCS.[Na+] [MESNA, sodium 2-mercaptoethane sulfonate] | diminish myofibroblast formation | 
5 to 15 min | NC[C@H]1CC[C@H](C(=O)O)CC1 [tranexamic acid] |  | one tenth of the doses used in the non-GLP acute porcine study
